In article PMC12655445, “In Vitro and In Vivo Effects of Resveratrol on Rat Hepatic CYP1A2” (Pharmaceuticals, 2025):

T1: rat liver microsomal CYP1A2 (Rattus norvegicus, UniProt P04799)
T1 construct: rat liver microsomes
T1 sequence (P04799 2-513): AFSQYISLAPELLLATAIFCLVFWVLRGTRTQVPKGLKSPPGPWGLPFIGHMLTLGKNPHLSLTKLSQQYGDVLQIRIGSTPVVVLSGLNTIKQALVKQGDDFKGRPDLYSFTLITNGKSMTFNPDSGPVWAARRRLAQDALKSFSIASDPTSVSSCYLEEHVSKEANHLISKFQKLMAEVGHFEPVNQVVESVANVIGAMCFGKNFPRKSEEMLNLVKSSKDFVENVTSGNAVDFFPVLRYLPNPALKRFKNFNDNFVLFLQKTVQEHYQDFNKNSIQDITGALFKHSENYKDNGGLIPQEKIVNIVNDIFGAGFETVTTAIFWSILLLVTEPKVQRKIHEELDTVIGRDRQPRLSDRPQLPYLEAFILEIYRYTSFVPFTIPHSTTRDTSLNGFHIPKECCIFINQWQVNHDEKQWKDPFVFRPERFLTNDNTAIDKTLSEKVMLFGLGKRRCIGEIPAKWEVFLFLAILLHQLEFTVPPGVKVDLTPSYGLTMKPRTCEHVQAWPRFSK

B1: human recombinant CYP1A2 (Homo sapiens) (protein)
chain: ALSQSVPFSATELLLASAIFCLVFWVLKGLRPRVPKGLKSPPEPWGWPLLGHVLTLGKNPHLALSRMSQRYGDVLQIRIGSTPVLVLSRLDTIRQALVRQGDDFKGRPDLYTSTLITDGQSLTFSTDSGPVWAARRRLAQNALNTFSIASDPASSSSCYLEEHVSKEAKALISRLQELMAGPGHFDPYNQVVVSVANVIGAMCFGQHFPESSDEMLSLVKNTHEFVETASSGNPLDFFPILRYLPNPALQRFKAFNQRFLWFLQKTVQEHYQDFDKNSVRDITGALFKHSKKGPRASGNLIPQEKIVNLVNDIFGAGFDTVTTAISWSLMYLVTKPEIQRKIQKELDTVIGRERRPRLSDRPQLPYLEAFILETFRHSSFLPFTIPHSTTRDTTLNGFYIPKKCCVFVNQWQVNHDPELWEDPSEFRPERFLTADGTAINKPLSEKMMLFGMGKRRCIGEVLAKWEIFLFLAILLQQLEFSVPPGVKVDLTPIYGLTMKHARCEHVQARLRFSIN
notes: human CYP1A2 expressed with NADPH P450 reductase in Escherichia coli DH5α; bacterial membranes; with NADPH P450 reductase

Experiments:
[1] = target: T1, rat liver microsomal CYP1A2; experiment: MROD fluorescence assay in rat liver microsomes, inhibition kinetics (IC50 […]); format: biochemical
[2] = substrate: COc1ccc2nc3ccc(=O)cc-3oc2c1; experiment: MROD kinetics with recombinant CYP1A2 membranes; value is Km; format: biochemical, Homo sapiens; details: heme; NADPH

Molecule	Ki [1] [µM]	Km [2] [µM]
Oc1ccc(/C=C/c2cc(O)cc(O)c2)cc1 [RSV, trans-3,4′,5-trihydroxystilbene]	49.1	–
B1	–	1.67
